In ChEMBL document CHEMBL2074094 (Arch Biochem Biophys, 1998):

Experiments:
[1] = molecular target: T1, ATP-dependent translocase ABCB1 (Mus musculus, UniProt P21447); assay: TP_TRANSPORTER: transepithelial transport (basal to apical) in mdr1a-expressing LLC-PK1 cell; format: functional, cell-based; conditions: pig
[2] = molecular target: ATP-dependent translocase ABCB1 (Homo sapiens, UniProt P08183); assay: TP_TRANSPORTER: transepithelial transport (basal to apical) in MDR1-expressing LLC-PK1 cells; format: functional, cell-based; conditions: pig
ATP-dependent translocase ABCB1 (Homo sapiens, UniProt P08183), sequence (P08183 whole entry): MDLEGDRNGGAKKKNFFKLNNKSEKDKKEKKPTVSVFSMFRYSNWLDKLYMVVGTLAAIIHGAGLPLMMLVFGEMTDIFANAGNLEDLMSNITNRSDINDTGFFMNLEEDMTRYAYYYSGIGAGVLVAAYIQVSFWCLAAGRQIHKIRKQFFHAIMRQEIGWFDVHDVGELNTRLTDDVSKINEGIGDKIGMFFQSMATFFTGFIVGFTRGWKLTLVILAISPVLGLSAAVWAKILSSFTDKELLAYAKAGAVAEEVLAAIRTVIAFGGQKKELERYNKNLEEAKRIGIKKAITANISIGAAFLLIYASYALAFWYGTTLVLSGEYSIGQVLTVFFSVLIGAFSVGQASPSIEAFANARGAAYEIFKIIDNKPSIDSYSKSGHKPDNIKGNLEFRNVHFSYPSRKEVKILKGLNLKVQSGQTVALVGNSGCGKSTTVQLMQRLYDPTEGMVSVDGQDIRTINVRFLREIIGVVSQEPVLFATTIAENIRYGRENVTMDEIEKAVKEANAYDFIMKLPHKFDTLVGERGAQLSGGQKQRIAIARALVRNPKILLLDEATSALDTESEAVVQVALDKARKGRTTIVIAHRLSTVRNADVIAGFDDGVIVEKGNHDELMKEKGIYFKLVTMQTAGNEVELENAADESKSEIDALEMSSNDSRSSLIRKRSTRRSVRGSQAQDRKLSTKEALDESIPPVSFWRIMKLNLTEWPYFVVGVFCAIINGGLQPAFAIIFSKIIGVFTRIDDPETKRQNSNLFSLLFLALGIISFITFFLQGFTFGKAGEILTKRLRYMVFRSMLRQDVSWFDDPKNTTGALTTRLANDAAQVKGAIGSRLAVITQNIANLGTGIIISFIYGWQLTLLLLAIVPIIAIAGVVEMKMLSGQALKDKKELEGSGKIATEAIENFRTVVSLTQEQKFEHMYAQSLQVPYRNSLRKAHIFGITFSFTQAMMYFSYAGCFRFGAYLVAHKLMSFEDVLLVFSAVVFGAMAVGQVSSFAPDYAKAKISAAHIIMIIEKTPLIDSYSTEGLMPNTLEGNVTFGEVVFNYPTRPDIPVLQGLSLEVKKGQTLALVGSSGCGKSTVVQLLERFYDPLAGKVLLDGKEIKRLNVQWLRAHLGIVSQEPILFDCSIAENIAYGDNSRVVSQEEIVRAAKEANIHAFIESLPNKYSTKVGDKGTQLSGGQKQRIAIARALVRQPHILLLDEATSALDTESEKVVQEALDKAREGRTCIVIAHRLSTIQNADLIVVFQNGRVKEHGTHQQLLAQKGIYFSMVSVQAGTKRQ

[3] = molecular target: T1, ATP-dependent translocase ABCB1; assay: TP_TRANSPORTER: tissue concentration in mdr1a(-/-) mouse; format: functional, organism-based; conditions: in vivo

T1 sequence (P21447 whole entry): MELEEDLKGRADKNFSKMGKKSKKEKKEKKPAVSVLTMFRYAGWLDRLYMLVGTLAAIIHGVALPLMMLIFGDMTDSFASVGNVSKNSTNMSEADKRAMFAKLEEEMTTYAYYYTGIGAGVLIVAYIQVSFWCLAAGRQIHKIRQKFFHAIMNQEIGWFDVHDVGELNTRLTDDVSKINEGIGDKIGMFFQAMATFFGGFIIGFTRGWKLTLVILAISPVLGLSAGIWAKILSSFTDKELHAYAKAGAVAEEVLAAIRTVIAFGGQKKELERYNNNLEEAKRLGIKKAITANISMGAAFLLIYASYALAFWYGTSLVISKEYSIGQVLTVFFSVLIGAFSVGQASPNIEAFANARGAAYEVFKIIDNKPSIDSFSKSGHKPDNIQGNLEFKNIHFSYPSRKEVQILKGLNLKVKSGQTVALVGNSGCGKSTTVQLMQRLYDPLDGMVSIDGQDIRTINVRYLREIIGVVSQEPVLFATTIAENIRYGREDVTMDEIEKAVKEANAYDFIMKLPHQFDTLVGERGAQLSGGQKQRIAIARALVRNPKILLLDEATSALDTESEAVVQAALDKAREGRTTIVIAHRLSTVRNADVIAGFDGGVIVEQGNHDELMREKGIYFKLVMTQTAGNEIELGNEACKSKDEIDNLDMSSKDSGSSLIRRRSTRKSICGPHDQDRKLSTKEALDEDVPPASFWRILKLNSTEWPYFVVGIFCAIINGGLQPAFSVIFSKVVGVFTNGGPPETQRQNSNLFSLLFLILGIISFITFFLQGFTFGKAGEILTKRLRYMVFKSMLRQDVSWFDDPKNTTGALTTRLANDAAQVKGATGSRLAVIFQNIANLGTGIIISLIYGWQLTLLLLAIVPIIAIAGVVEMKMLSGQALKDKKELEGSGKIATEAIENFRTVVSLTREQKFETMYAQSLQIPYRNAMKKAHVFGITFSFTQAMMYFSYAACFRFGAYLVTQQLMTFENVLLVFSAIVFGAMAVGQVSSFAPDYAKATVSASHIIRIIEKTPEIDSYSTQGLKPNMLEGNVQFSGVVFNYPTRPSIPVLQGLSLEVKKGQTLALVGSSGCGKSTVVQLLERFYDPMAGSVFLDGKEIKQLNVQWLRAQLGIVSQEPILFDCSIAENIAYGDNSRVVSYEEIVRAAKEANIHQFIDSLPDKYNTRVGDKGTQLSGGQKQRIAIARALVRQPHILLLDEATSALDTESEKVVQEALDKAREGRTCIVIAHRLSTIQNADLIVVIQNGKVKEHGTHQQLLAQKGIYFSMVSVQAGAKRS

Activity [3]	Compound	Activity [1]	Activity [2]
–	c1ccc2c(c1)cc1ccc3cccc4ccc2c1c34	is not a substrate [-]	is not a substrate [-]
is not a substrate [-]	CC1=C(/C=C/C(C)=C/C=C/C(C)=C/C(=O)O)C(C)(C)CCC1 [TRETINOIN]	is not a substrate [-]	is not a substrate [-]
